Test results taken from patent US11267820B2, “Tricyclic fused pyridin-2-one derivatives and their use as BRD4 inhibitors” (JUBILANT BIOSYS LIMITED, priority 2015, dated 2022).

Each molecule was assayed on AML cell line MV4-11 (assay: Anticancer activity: Alamar Blue 3-day proliferation assay). Conditions: Homo sapiens, MV4-11 cells, 72h, read-out: MV4-11 EC50_μM.
Assay type: cell-based
Description: The impact of the compounds on cancer cell proliferation was determined using the AML cell line MV4-11 (ATCC) in a 3-day proliferation assay. MV4-11 cells were maintained in RPMI supplemented with 10% FBS at 37° C., 5% CO2. For compound testing, MV4-11 cells were plated in a 96-well black bottom plate at a density of 15,000 cells/well in 100 μL culture media and incubated at 37° C. overnight. Compound dilution series were prepared in DMSO via a 3-fold serial dilution from 100 μM to 0.005 μM. The DMSO dilution series were then diluted with media, with the final compound concentrations added to the wells ranging from 10 μM to 0.0005 μM. […] The fluorescent readings from the Alamar Blue assay were normalized to the DMSO treated cells and analyzed using the GraphPad Prism software with siginoidal curve fitting to obtain EC50.

Q: With `CCNC(=O)CC1OC(c2ccc(Cl)cc2)c2c(sc(C)c2C)-c2cn(C)c(=O)cc21` (racemic) [bb, 2-(4-(4-chlorophenyl)-2,3,9-trimethyl-8-oxo-4,6,8,9-tetrahydrothieno[2′,3′:5,6]oxepino[4,3-c]pyridin-6-yl)-N-ethylacetamide] as the molecule, how does the EC50 read?
A: The EC50 was under 0.5 nM.

Q: For `CCOC(=O)CC1N=C(c2ccc(Cl)cc2)c2nc(C)sc2-c2cn(C)c(=O)cc21` (racemic) [l, Ethyl 2-(4-(4-chlorophenyl)-2,9-dimethyl-8-oxo-8,9-dihydro-6H-pyrido[4,3-c]thiazolo[5,4-e]azepin-6-yl)acetate], which EC50 is on record?
A: Its EC50 is 430 nM.

Q: With `CCNC(=O)CC1OC(c2ccc(Cl)cc2)c2c(cnn2C)-c2cn(C)c(=O)cc21` (racemic) [ll, 2-(4-(4-chlorophenyl)-3,9-dimethyl-8-oxo-4,6,8,9-tetrahydro-3H-pyrazolo[4′,3′:5,6]oxepino[4,3-c]pyridin-6-yl)-N-ethylacetamide] as the molecule, how does the EC50 read?
A: The EC50 was under 0.5 nM.

Q: For `CCNC(=O)CC1N=C(c2ccc(Cl)cc2)c2nc(C)sc2-c2cn(C)c(=O)cc21` (racemic) [m, 2-(4-(4-chlorophenyl)-2,9-dimethyl-8-oxo-8,9-dihydro-6H-pyrido[4,3-c]thiazolo[5,4-e]azepin-6-yl)-N-ethylacetamide], which EC50 is on record?
A: Its EC50 is 140 nM.

Q: With `CCNC(=O)CC1N=C(CC2CC2)c2c(sc(C)c2C)-c2cn(C)c(=O)cc21` (racemic) [r, 2-(4-(cyclopropylmethyl)-2,3,9-trimethyl-8-oxo-8,9-dihydro-6H-pyrido[4,3-c]thieno[2,3-e]azepin-6-yl)-N-ethylacetamide] as the molecule, how does the EC50 read?
A: The EC50 was 157 nM.

Q: How did the EC50 turn out when `CCNC(=O)CC1N=C(c2ccc(Cl)cc2)c2cc(OC)ncc2-c2cn(C)c(=O)cc21` (racemic) [t, 2-(7-(4-chlorophenyl)-9-methoxy-2-methyl-3-oxo-3,5-dihydro-2H-dipyrido[4,3-c:3′,4′-e]azepin-5-yl)-N-ethylacetamide] was run?
A: Its EC50 is 17 nM.

Q: With `CCOC(=O)CC1N=C(c2ccc(Cl)cc2)c2c(cnn2C)-c2cn(C)c(=O)cc21` (racemic) [w, Ethyl 2-(4-(4-chlorophenyl)-3,9-dimethyl-8-oxo-3,6,8,9-tetrahydropyrazolo[3,4-c]pyrido[3,4-e]azepin-6-yl)acetate] as the molecule, how does the EC50 read?
A: Its EC50 is 26 nM.
